Results as given in patent US10214609B2, “Polyglyoxylates, manufacture and use thereof” (THE UNIVERSITY OF WESTERN ONTARIO, priority 2014, dated 2019).

Experiments:
[1] = NMR degradation study of the micelles; type: physicochemical; conditions: over 24 h at 37° C., pH 7.4 buffered D2O
Procedure: 16 mg of block copolymer 21 b was fully dissolved in 0.8 mL of DMSO-d6. 0.2 mL of the resulting solution was rapidly injected into 1.0 mL of 100 mM, pH 7.4 phosphate or 100 mM, pH 5.0 citrate buffered D2O. After stirring for 0.5 h, the micelle suspension was transferred into two NMR tubes. One tube was then irradiated for 10 min in with UV light (wavelength: 300-350 nm, 23 mW cm^−2), while the other one was kept in the dark. A ^1H NMR spectrum was obtained immediately following irradiation (10 min time point in the graph), then the samples were incubated at 37° C. and spectra were obtained at regular intervals over 24 h. Complete depolymerization was confirmed for the irradiated sample as the sum of the integration of the methyl peaks corresponding to EtGH and ethanol (1.0-1.2 ppm) plateaud at a very similar (1198) value to that of the methyl peak at 1.17-1.45 ppm in the block copolymer 21b taken in CDCl3 (integration 1152) when setting the PEG peak integral to 364. The % polymer remaining was calculated as 100−(sum of integration from 1.0-1.2 ppm/1198))*100.

[2] = Nile red encapsulation and triggered release from micelles; conditions: dissolved in ethanol, same irradiation periods
[3] = Thermogravimetric analysis (TGA) of polymers; type: physicochemical
Description: Ethyl glyoxylate in toluene solution (50% w/w), phenyl isocyanate, dibutyltin dilaurate (DBTL), benzyl chloroformate, 4-dimethylaminopyridine (DMAP), 4-bromomethyl-3-nitrobenzoic acid, methanesulfonyl chloride and benzyl bromide were obtained from Alfa Aesar (Canada). Fumaric acid and maleic acid were purchased from Acros Organics (USA). 6-Nitroveratryl chloroformate (NVOC-Cl) was obtained from Chem-Impex International, Inc. (USA). Propargyl amine was purchased from AK Scientific, Inc. (USA). 4-(Hydroxymethyl)phenylboronic acid pinacol ester and hydrogen peroxide solution (50 wt %) in water, hydrazine hydrate, dimethyl sulfide, sodium azide (NaN3), tin (II)chloride dehydrate, phosgene solution (15 wt. % in toluene), nile red and poly(ethylene glycol) methyl ether (MW=5000 g/mol, 2000 g/mol and 750 g/mol) were purchased from Sigma-Aldrich (USA). 1-Ethyl-3-(3-dimethylaminopropyl) carbodiimide hydrochloride (EDC.HCl) was purchased from Creo Salus (USA). Thionyl chloride (Alfa Aesar) was distilled under argon prior to use. Triethylamine (Et3N), pyridine, and dichloromethane were distilled from calcium hydride before use. Anhydrous tetrahydrofuran (THF) and N,N-dimethylformamide (DMF) were obtained from a solvent purification system using aluminum oxide columns. All the other chemicals were of reagent grade and used without further purification. ^1H NMR spectra were obtained in CDCl3 at 400 MHz or 600 MHz on Varian Inova instruments. NMR chemical shifts (δ) are reported in ppm and are calibrated against residual solvent signals of CDCl3 (δ 7.27), acetonitrile-d3 (δ 1.94), DMSO-d6 (δ 2.50) or deuterium oxide (δ 4.75). Fourier transform infrared spectra (FT-IR) were obtained using a Bruker tensor 27 instrument with films drop cast from CH2Cl2 on KBr plates. High-resolution mass spectrometry (HRMS) was performed using a Finnigan MAT 8400 electron impact (EI) mass spectrometer. The SEC instrument was equipped with a Viscotek GPC Max VE2001 solvent module. Samples were analyzed using the Viscotek VE3580 RI detector operating at 30° C. The separation technique employed two Agilent Polypore (300×7.5 mm) columns connected in series and to a Polypore guard column (50×7.5 mm). Samples were dissolved in THF (glass distilled grade) in approximately 5 mg/mL concentrations and filtered through 0.22 μm syringe filters. Samples were injected using a 100 μL loop. The THF eluent was filtered and eluted at 1 ml/min for a total of 30 minutes. A calibration curve was obtained from Polystyrene samples with molecular weight ranges of 1,540-1,126,000/mol Differential scanning calorimetry (DSC) and thermogravimetric analysis (TGA) were performed on a Mettler Toledo DSC 822e. For TGA the heating rate was 10° C./min between 50-400° C. under nitrogen. For DSC, the heating/cooling rate was 10° C./min from −100 to +17° C. Glass transition temperatures were obtained from the second heating cycle. Ultrapure water was obtained from a Barnstead EASYpure II system. Dialyses were performed using Spectra/Por regenerated cellulose membranes with 3500 g/mol MWCO.

Change of fluorescence intensity on irradiation (photostability) [2]	To (onset degradation temperature) [3] [°C]	Tp (peak degradation temperature) [3] [°C]	Compound	Hydrolysis to glyoxylic acid and ethanol [1] [%]
			CCOC(=O)C=O.O [EtGH, ethyl glyoxylate hydrate]	~45
no detectable decrease in intensity			CCN(CC)c1ccc2nc3c4ccccc4c(=O)cc-3oc2c1 [nile red]	
	181	203	PEtG-co-poly(methyl glyoxylate) [Polymer 14]	
	208	236	PEtG-co-poly(n-butyl glyoxylate) [Polymer 15]	
	195	229	poly(benzyl glyoxylate) [Polymer 13]	
